Experimental data taken from patent US4327026A, “Benzodiazepine derivatives” (Hoffmann-La Roche Inc., priority 1980, dated 1982).

Tests used:
[1] = test system: aldosterone; test: Aldosterone-antagonistic activity in adrenalectomised rats (urine volume, sodium and potassium excretion); assay type: in vivo, Female Holtzmann rats; conditions: for Volume (urine volume) in %, based on control animals / [K+] (potassium excretion) in %, based on control animals / [Na+] (sodium excretion) in %, based on control animals: 1 mg/kg p.o., 30 min before aldosterone s.c., urine collected 3 hours, vs animals treated only with aldosterone
Experimental: If compounds of formula I are administered to the animals before the treatment with aldosterone, then there is observed, in comparison to animals which are treated only with aldosterone (control animals), a pronounced increase of the sodium excretion (i.e. the sodium retention caused by aldosterone is antagonised), whereas the potassium excretion and the urine volume are influenced to a lesser extent.
The standard experiment is carried out as follows:
Female Holtzmann rats (150-180 g) are bilaterally adrenalectomised 70 to 74 hours before the beginning of the experiment. After the operation, the animals receive a customary rat dry feed and 0.9% sodium chloride solution for drinking. 16-17 hours before the beginning of the experiment the feed is removed from the animals, but they can subsequently drink, as before, 0.9% sodium chloride solution ad libitum. At the beginning of the experiment the substance to be tested as an aldosterone-antagonist is administered to the animals by means of a stomach probe. 30 minutes later the animals receive a subcutaneous injection of […] of aldosterone. After a further 90 minutes, the urinary bladders of the animals are emptied by careful suprapubic pressure, whereupon the animals are placed individually in metabolic cages without food and without drink. The urine of the animals is then collected for 3 hours, whereupon their urinary bladders are once more emptied. The spontaneously excreted urine and the remaining urine obtained at the conclusion of the experiment by pressing-out the urinary bladders are collected in graduated centrifuge glasses. Sodium and potassium concentrations in the urine are determined with a flame photometer.
(§1) The following Table contains results obtained in the previously described experiment with representative compounds of formula I. In this Table there are given for each of the compounds in question the dosage administered (in mg/kg p.o.) as well as the percentage variation in the urine volume, the sodium excretion and the potassium excretion in comparison with the control animals (i.e. in comparison with the animals treated only with aldosterone). Moreover, the Table contains data concerning the acute toxicity of the compounds investigated (LD 50 in mg/kg in the case of single oral administration to mice).

[2] = Acute toxicity, single oral administration to mice; conditions: mouse, in vivo, single oral administration (p.o.)
Excerpt: as §1

## CC1N=C(c2ccccc2F)c2cc(C(C)N)ccc2N(C)C1=O (stereo not drawn) [Example 2, 7-(1-aminoethyl)-5-(o-fluorophenyl)-1,3-dihydro-1,3-dimethyl-2H-1,4-benzodiazepin-2-one]
[1]
  Volume (urine volume) in %, based on control animals: 169%
  [K+] (potassium excretion) in %, based on control animals: 102%
  [Na+] (sodium excretion) in %, based on control animals: 298%
[2]
  LD50: 625 mg/kg

## CCN1C(=O)CNC(c2ccccc2F)c2cc(C(C)=NO)ccc21 (stereo not drawn) [Example 5]
[1]
  Volume (urine volume) in %, based on control animals: 157%
  [K+] (potassium excretion) in %, based on control animals: 87%
  [Na+] (sodium excretion) in %, based on control animals: 247%
[2]
  LD50: > 5000 mg/kg

## CCN1C(=O)CNC(c2ccccc2F)c2cc(C(C)NCCO)ccc21 (stereo not drawn) [Example 6, 1-ethyl-5-(o-fluorophenyl)-1,3,4,5-tetrahydro-7-/1-[(2-hydroxyethyl)-amino]ethyl/-2H-1,4-benzodiazepin-2-one]
[1]
  Volume (urine volume) in %, based on control animals: 150%
  [K+] (potassium excretion) in %, based on control animals: 93%
  [Na+] (sodium excretion) in %, based on control animals: 306%
[2]
  LD50: 4000 mg/kg

## CCN1C(=O)CNC(c2ccccc2F)c2cc(C(C)N(C)C)ccc21 (stereo not drawn) [Example 7a, 7-[1-(dimethylamino)ethyl]-1-ethyl-5-(o-fluorophenyl)-1,3,4,5-tetrahydro-2H-1,4-benzodiazepin-2-one]
[1]
  Volume (urine volume) in %, based on control animals: 147%
  [K+] (potassium excretion) in %, based on control animals: 90%
  [Na+] (sodium excretion) in %, based on control animals: 252%
[2]
  LD50: 500 mg/kg

## CCN1C(=O)CN=C(c2ccccc2F)c2cc(C(C)OCOC)ccc21 (stereo not drawn) [Example 9a, 1-ethyl-5-(o-fluorophenyl)-1,3-dihydro-7-[1-(methoxymethoxy)ethyl]-2H-1,4-benzodiazepin-2-one]
[1]
  Volume (urine volume) in %, based on control animals: 138%
  [K+] (potassium excretion) in %, based on control animals: 93%
  [Na+] (sodium excretion) in %, based on control animals: 359%
[2]
  LD50: 500 mg/kg

## CN1C(=O)CN=C(c2ccccc2)c2cc(CNC(=O)NCCO)ccc21 [Example 22, 1-[(2,3-dihydro-1-methyl-2-oxo-5-phenyl-1H-1,4-benzodiazepin-7-yl)methyl]-3-(2-hydroxyethyl)urea]
[1]
  Volume (urine volume) in %, based on control animals: 130%
  [K+] (potassium excretion) in %, based on control animals: 82%
  [Na+] (sodium excretion) in %, based on control animals: 224%
[2]
  LD50: > 5000 mg/kg

## C[C@]12CCC(=O)C=C1CC[C@@H]1[C@@H]2[C@@H](O)C[C@]2(C=O)[C@@H](C(=O)CO)CC[C@@H]12 [aldosterone, reference compound]
[1]; vs untreated animals, in words
  excreted urine volume after aldosterone: reduction of the excreted urine volume
  potassium excretion after aldosterone: increased potassium excretion
  sodium excretion after aldosterone: pronounced reduction of the sodium excretion
